Laboratory results published in ChEMBL document CHEMBL4513161, “CO-ADD screening of MMV (CH) - Pandemic Response Box” (2021).

How the values were obtained:
[1] = tested on: Klebsiella pneumoniae; assay: microbe, parasite or virus in culture; conditions: ATCC 700603, 18 h, ASSAY_TEST Inhibition of Bacterial Growth, detection method Absorption (OD600), MEDIA CAMHB, plate type 384well, NBS, CORNING #3640
Description: Antibacterial activity against Klebsiella pneumoniae MDR ATCC 70063 (CO-ADD:GN_003); MIC in CAMBH media using NBS plates, by OD(600)

[2] = tested on: Pseudomonas aeruginosa; assay: Antibacterial activity against Pseudomonas aeruginosa PAO397 [PAO1 d(mexAB-oprM) d(mexCD-oprJ) d(mexEF-oprN) d(mexJKL) d(mexXY) d(opmH)] (CO-ADD:GN_211); MIC in CAMBH media using NBS plates, by OD(600); format: functional; conditions: ASSAY_TEST Inhibition of Bacterial Growth, detection method Absorption (OD600), MEDIA CAMHB, plate type 384well, CORNING #3640, time 18 hr
[3] = tested on: Candida albicans; assay: microbe, parasite or virus in culture; conditions: ATCC 90028, ASSAY_TEST Inhibition of Fungal Growth, detection method Absorption (OD530), plate type 384well, NBS, CORNING #3640
Description: Antifungal activity against Candida albicans ATCC 90028 (CO-ADD:FG_001); MIC in YNB media using NBS plates, by OD630

[4] = tested on: Acinetobacter baumannii; assay: microbe, parasite or virus in culture; conditions: ATCC 19606, 18 h, ASSAY_TEST Inhibition of Bacterial Growth, detection method Absorption (OD600), MEDIA CAMHB, plate type 384well, NBS, CORNING #3640
Description: Antibacterial activity against Acinetobacter baumannii ATCC 19606 (CO-ADD:GN_034); MIC in CAMBH media using NBS plates, by OD600

[5] = tested on: Staphylococcus aureus; assay: microbe, parasite or virus in culture; conditions: ATCC 43300, 18 h, ASSAY_TEST Inhibition of Bacterial Growth, detection method Absorption (OD600), MEDIA CAMHB, plate type 384well, NBS, CORNING #3640
Description: Antibacterial activity against Staphylococcus aureus MRSA ATCC 43300 (CO-ADD:GP_020); MIC in CAMBH media, using NBS plates, by OD(600)

[6] = tested on: Cryptococcus neoformans
Description: Antifungal activity against Cryptococcus neoformans H99 ATCC 208821 (CO-ADD:FG_002); MIC in YNB media using NBS plates, by Resazurin OD(600-570)

[7] = tested on: Pseudomonas aeruginosa; assay: microbe, parasite or virus in culture; conditions: ATCC 27853, 18 h, ASSAY_TEST Inhibition of Bacterial Growth, detection method Absorption (OD600), MEDIA CAMHB, plate type 384well, NBS, CORNING #3640
Description: Antibacterial activity against Pseudomonas aeruginosa ATCC 27853 (CO-ADD:GN_042); MIC in CAMBH media using NBS plates, by OD(600)

[8] = tested on: HEK293; assay: cells; format: functional, Homo sapiens, ATCC CRL1573; conditions: Homo sapiens, ATCC CRL1573, HEK293; ASSAY_TEST Inhibition of Cell Viability; detection method Resazurin; Fluorescence (ex560/em590); MEDIA DMEM with 10% FBS; plate type 384well; TC; CORNING #3712; time 18 hr; read-out: CC50
[9] = tested on: Escherichia coli; assay: microbe, parasite or virus in culture; conditions: ATCC 25922, 18 h, ASSAY_TEST Inhibition of Bacterial Growth, detection method Absorption (OD600), MEDIA CAMHB, plate type 384well, NBS, CORNING #3640
Description: Antibacterial activity against Escherichia coli ATCC 25922 (CO-ADD:GN_001); MIC in CAMBH media using NBS plates, by OD(600)

Row | Compound | MIC [1] [µM] | MIC [2] [µM] | MIC [3] [µM] | MIC [4] [µM] | MIC [5] [µM] | MIC [6] [µM] | MIC [7] [µM] | CC50 [8] [µM] | MIC [9] [µM]
1 | O=C(/C=C\n1cnc(-c2cc(C(F)(F)F)cc(C(F)(F)F)c2)n1)NNc1ccccn1 [VERDINEXOR] | > 20 | > 20 | > 20 | > 20 | > 20 | > 20 | > 20 | > 20 | > 20
2 | O=C(Nc1nnc(-c2ccc(Cl)cc2)o1)c1nc2ccccc2s1 | > 20 | > 20 | > 20 | > 20 | > 20 | > 20 | > 20 | > 20 | > 20
3 | CC(Cc1ccccc1)C(=O)Nc1ccc(Cl)cc1C(=O)O (stereo unspecified) | > 20 | > 20 | > 20 | > 20 | > 20 | > 20 | > 20 | > 20 | > 20
4 | O=C(/C=C/n1cnc(-c2cc(C(F)(F)F)cc(C(F)(F)F)c2)n1)NNc1cnccn1 | > 20 | > 20 | > 20 | > 20 | > 20 | > 20 | > 20 | > 20 | > 20
5 | CC(C)Oc1ccc(-n2cnc3cc(/C=C\c4ccc(C(C)(C)O)cc4)ccc32)cc1 [LHF-535] | > 20 | > 20 | > 20 | > 20 | > 20 | > 20 | > 20 | 10.6 | > 20
6 | O=C(N[C@H](CCS)C(=O)N[C@H](Cc1ccccc1)C(=O)O)c1cc2ccccc2[nH]1 | > 20 | > 20 | > 20 | > 20 | > 20 | > 20 | > 20 | > 20 | > 20
7 | COCCn1cnc2c(O)nc(Nc3ccccc3)nc21 | > 20 | > 20 | > 20 | > 20 | > 20 | > 20 | > 20 | > 20 | > 20
8 | Nc1nc(O)c(Br)c(-c2cccc(Cl)c2)n1 | > 20 | > 20 | > 20 | > 20 | > 20 | > 20 | > 20 | > 20 | > 20
9 | O=C(O)CSc1cc(NS(=O)(=O)c2cccc3cccnc23)c2ccccc2c1O | > 20 | > 20 | > 20 | > 20 | > 20 | > 20 | > 20 | > 20 | > 20
10 | O=c1[nH]c(=O)n(Cc2cccc(Oc3ccccc3)c2)cc1Nc1ccccc1 | > 20 | > 20 | > 20 | > 20 | > 20 | > 20 | > 20 | > 20 | > 20
11 | Nc1nc2c(Cc3cccnc3)c[nH]c2c(=O)[nH]1 [PELDESINE] | > 20 | > 20 | > 20 | > 20 | > 20 | > 20 | > 20 | > 20 | > 20
12 | O=C(c1ccccc1)N1CCN(c2ccccc2NC(=O)C(Cl)(Cl)Cl)CC1 | > 20 | > 20 | > 20 | > 20 | > 20 | > 20 | > 20 | > 20 | > 20
13 | CN(C)CCCOc1ccc(-c2ccc3ncc4c(c3c2)n(C2CCOCC2)c(=O)n4C)cn1 | > 20 | > 20 | > 20 | > 20 | > 20 | > 20 | > 20 | > 20 | > 20
14 | c1ccc(-c2nnc3c4ccccc4c(N4CCNCC4)nn23)cc1 | > 20 | > 20 | > 20 | > 20 | > 20 | > 20 | > 20 | 14.2 | > 20
